# Reference: patent publication US10857180B2, “Pharmaceutical composition for improving health, cure abnormalities and degenerative disease, achieve anti-aging effect of therapy and therapeutic effect on mammals and method thereof” (priority 2014, dated 2020)
# What was measured:
# [1] = tested on: renal cell carcinoma (PA) cells; test: Transformation of PA tumor cells into type A/B cells (trypan blue); type: cell-based, rat; conditions: for concentration of cells of type A at first calculation: 10 hours after start, both concentration models; for time for 80% of the transformation into phenotype A: total time 140 hours
# Text: Staining of Cell Suspension with Trypan Blue and Visual Control of Changes in the Shape, Color and Size of the Cells will now be discussed. The visual control method was based on the observation of state of the plasma membrane permeability after the action of materials under study, and reflects the degree of membrane's damage, making it possible to estimate an ability of nuclear proteins to absorb the dye.
# To make the analysis, the cell suspension, after it was exposed to the action of materials, in a volume of 20 mcl was mixed with 20 mcl of trypan blue solution and resuspended. The obtained solution was placed in a hemocytometer chamber for visual analysis and quantitative estimation of the cells. To make the quantitative estimation of the cells, they were separated from the substrate using Versene solution and counted by staining cells with trypan. A change in the color of a cell was indicative of the violation of intactness of the cell membrane, and the more pronounced was the coloration, the less viable the cell was. […] They are easily distinguishable from dark damaged cells and easily identified with ordinary light microscope.
# Primary cell culture for our in vitro experiments was obtained by enzymatic treatment of tumor material (using trypsin solution) from a strain of renal cell carcinoma (PA) in a rat Visually (after its removal from the animal), the tumor looked as a nodular fleshy growth of a whitish-pink color of rather dense consistency, marginated from other tissues by a joint capsule. The main morphological signs of PA tumor in the animal can be described as follows. Small (1.5 to 2 grams) fragments without vessels and blastic lesions were excised aseptically from the surgically removed tumor and then cut them with scissors to smaller pieces of 0.2 to 0.3 mm in size and cultured in a solution of trypsin. The culture medium contained the following components: RPMI-1640 (Sigma, USA) as the base plus 10% newborn calf serum and 40 mcg/ml of gentamicin. Trypsinization was performed in a humidified atmosphere of 5% CO2 at 37° C. with constant mixing of the contents in a magnetic stirrer. The isolated cells were washed three times in a culture medium by centrifuging and before starting the experiment a quantitative assessment of cells was carried out in the Goryaev chamber with supravital staining of the cells with trypan blue.
# Analysis of the effect of all components on the renal cell carcinoma (PA) was conducted to determine the relationship between the amount of the preparation (concentration characteristics of the component) and the quantitative characteristics of the cells. Assessment of the effect of the components was carried out on 2 concentration models with 30 and 300 thousand original tumor cells. After the cells were cultured, cell suspensions were prepared in the plates with the culture medium and an effect of the preparations (in various concentrations) on the tumor cells was assessed. The experiment was started with the concentration of 10 mg of the active substance per 1 ml of the solvent (saline with 5% glucose).
# The amount of culture medium in each well was 200 mcl for 30 thousand cells and 2 ml for 300 thousand cells, respectively. The amounts of drugs (active substances) for 2 concentration models differed according to the amount of cells and culture medium, i.e., the amount of drug in the experiment with 300 thousand cells was ten times as large as compared with the same in the experiment with 30 thousand cells. The result of effects of the components is shown in FIGS. 22, 23 for light isotope components and in FIG. 25 for the elements with natural distribution of isotopes. Assessment of the effect of the components was performed by comparing the external factors of cells (color, size, shape) prior to the experiment and after staining. […]
# COLO 205 cell line = test: Cytogenetic analysis (micronucleus test) of COLO 205 cells; type: cell-based, human; conditions: ^39K 2 mg/ml, ^64Zn 20 mcg/ml, ^24Mg 4 mg/ml
# Experimental: Advanced Micronucleus Test was used to assess the cytogenetic characteristics of cells after their exposure to the action of the test group of components.
# Cytogenetic analysis was carried out after 48 hours of exposure of the cells to the action of the components. For cytogenetic analysis, the cells were incubated in hypotonic solution KCl (0.54%) (Reahim, Ukraine) for 40 minutes at +37° C. Then they were fixed with a mixture of methyl alcohol (Reahim, Ukraine) and acetic acid (Himlaborreaktiv, Ukraine) (3:1) with replacing the fixative three times. All fixed cell suspensions were applied on cold wet glasses, dried and stained with Giemsa stain (Sigma, Germany). The cytogenetic preparations were analyzed using a binocular microscope Sari Zeiss, AxioStarPlus (Germany) with magnification of x 1000. The following quantitative characteristics and stages of cell division were analyzed on the preparations: mitoses, cells with premature chromosome condensation (PCC), cells with micronuclei (CMN), apoptotic cells and cells with nuclear protrusions (protrusions) which were calculated for 1000 cells and expressed in per mille (%).
SMILES,concentration of cells of type A at first calculation [1] [%],cells of type A ([1]; ^24Mg 0.4 mg/ml),cells of type A ([1]; ^24Mg 2 mg/ml) [%],cells of type B ([1]; ^24Mg 2 mg/ml) [%],cells of type A ([1]; ^24Mg 10 mg/ml) [%],changes (cell transformation) in the first 10 hours [1] [%],time for 80% of the transformation into phenotype A [1] [h],tumor proliferation (cell division) at the stage of G2/M (COLO 205 cell line),time of transformation of 100% initial tumor cells into phenotype A [1] [h],A cells ([1]; ^39K 2 mg/ml),cells of type A ([1]; ^39K 10 mg/ml) [%],A cells ([1]; ^64Zn 0.08 mg/ml) [%],cells of type A ([1]; ^64Zn 0.128 mg/ml),cells of type A obtainable with 1 microgram of ^64Zn sulfate ([1]; assuming 50% of cells transformed) [cells],cells of type A obtainable with 1 microgram of ^64Zn sulfate ([1]; assuming 100% transformation) [cells]
O=S(=O)([O-])[O-].[24Mg+2] [^24Mg],100,about 5%,25,75,100,62,≤ 45,inhibition of tumor proliferation,,,,,,,
[39K+].[Cl-] [^39K],100,,,,,40,≤ 20,inhibition of tumor proliferation,80,About 50%,100,,,,
O=S(=O)([O-])[O-].[64Zn+2] [^64Zn],,,,,,80,≤ 10,inhibition of tumor proliferation,≤ 50,,,100,about 30%,23438,938
